Laboratory results taken from ChEMBL document CHEMBL2417372, “Design, synthesis, and mechanism of action of 2-(3-hydroxy-5-methoxyphenyl)-6-pyrrolidinylquinolin-4-one as a potent anticancer lead” (Bioorg Med Chem Lett, 2013).

Tests used:
[1] = system: KM12; test: Cytotoxicity against human KM12 cells after 48 hrs; assay type: functional; conditions: KM12, 48 h
[2] = system: OVCAR-8; test: Cytotoxicity against human OVCAR8 cells after 48 hrs; assay type: functional; conditions: OVCAR-8, 48 h
[3] = read-out: pLC50 (the source's name) (converted)

For `COc1cc(O)cc(-c2cc(=O)c3cc(N4CCCC4)ccc3[nH]2)c1`, the GI50 [1] was 0.0347 µM, the CC50 [1, 3] was > 100 µM and the TGI ([1]; read-out: pTGI) was > 100 µM. The GI50 [2] was 0.0389 µM, the CC50 [2, 3] was > 100 µM and the TGI ([2]; read-out: pTGI (converted)) was 31.6 µM.
